# Test: Apparent permeability across apical to basolateral side of dog MDCK cells at 50 uM measured every 15 mins for 1.5 hrs by LC-MS/MS analysis
# Type: ADME, cell-based, Canis lupus familiaris
smiles,measurement,value
COCCc1ccc(OCC(O)CNC(C)C)cc1 (stereo unspecified) [METOPROLOL],"Papp A→B at 1.5 h, 50 µM",15.6 ×10⁻⁶ cm/s

# From ChEMBL document CHEMBL1914399 (Bioorg Med Chem Lett, 2011)
